Measurements as given in patent publication US20250368628A1, “METHODS AND COMPOUNDS FOR MODULATING INHERITED GENETIC DISEASES” (Design Therapeutics, Inc., priority 2022, published 2025).
Where two headings read alike, the source gives them in different places.

Tests used:
[1] = test system: Myotonic Dystrophy 1 affected patient fibroblasts (Coriel GM04602; 1600 CTG repeats); assay: DM1 foci reduction assay (EC50 assay; CAG10-Cy3 FISH, foci per nucleus); format: cell-based
In short: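 GM04602 DM1 patient fibroblasts (1600 CTG repeats) seeded 24 h, then treated 48 h at 37 °C with an 8-point 1:3 dose series from 3 μM. Cells PFA-fixed, ethanol-permeabilized and hybridized overnight with 5 nM CAG10-Cy3 probe, DAPI counterstained. Imaged at 20×, 4 fields per well, as average foci per nucleus.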

F35T cells = assay: Foci reduction in FECD (CAG10-Cy3 FISH, foci per nucleus); format: cell-based
In short: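 F35T cells, 5000 per well, were treated for 48 h at 37 °C, 5% CO2 in an 8-point dose response. Cells were then fixed in 4% PFA, permeabilized in 70% ethanol and hybridized overnight at 37 °C with a CAG10-Cy3 probe in 30% formamide/2×SSC. After DAPI staining, imaging gave foci per nucleus.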

[2] = Homo sapiens, Fibroblast; DM1 patient fibroblasts, 48 h treatment, foci per nucleus; read-out: DM1 EC50, 48 h
[3] = F35T cells, 48 h treatment, foci per nucleus; read-out: FECD EC50, 48 h

`Cn1cc(NC(=O)c2nc(NC(=O)CCNC(=O)c3cc(NC(=O)c4nccn4C)cn3C)cn2C)cc1C(=O)NCCCC(=O)Nc1cn(C)c(C(=O)NCCC(=O)Nc2cc(C(=O)Nc3cn(C)c(C(=O)NCCC(=O)N4CCC(C#CC#CC5CCN(C(=O)c6cccc(C(=O)O)c6)CC5)CC4)n3)n(C)c2)n1` [Compound B-224] was tested, and the EC50 [1, 2] was > 1000 nM and the EC50 (F35T cells; [3]) was 500 to 1000 nM.

With `Cn1cc(NC(=O)c2nc(NC(=O)CCNC(=O)c3cc(NC(=O)c4nccn4C)cn3C)cn2C)cc1C(=O)NCCCC(=O)Nc1cn(C)c(C(=O)NCCC(=O)Nc2cc(C(=O)Nc3cn(C)c(C(=O)NCCC(=O)NCCCO)n3)n(C)c2)n1` [Compound B-52] the EC50 [1, 2] was < 100 nM and the EC50 (F35T cells; [3]) was < 100 nM.

In the case of `CN(C)c1ccc(C#CCNC(=O)CCNC(=O)c2nc(NC(=O)c3cc(NC(=O)CCNC(=O)c4nc(NC(=O)CCCNC(=O)c5cc(NC(=O)c6nc(NC(=O)CCNC(=O)c7cc(NC(=O)c8nccn8C)cn7C)cn6C)cn5C)cn4C)cn3C)cn2C)cc1` [Compound B-135], the EC50 [1, 2] is reported as < 100 nM and the EC50 (F35T cells; [3]) is reported as 100 to 500 nM.

`CCCNC(=O)c1nc(NC(=O)c2cc(NC(=O)CCNC(=O)c3nc(NC(=O)CCCNC(=O)c4cc(NC(=O)c5nc(NC(=O)CCNC(=O)c6cc(NC(=O)c7nccn7C)cn6C)cn5C)cn4CCCCCCNC(=O)CCOCCOCCOCCOCCOCCOC)cn3C)cn2C)cn1C` [Compound B-235] was tested, and the EC50 [1, 2] was > 1000 nM and the EC50 (F35T cells; [3]) was > 1000 nM.

In the case of `CC(=O)NCCCCn1cc(NC(=O)c2nc(NC(=O)CCNC(=O)c3cc(NC(=O)c4nccn4C)cn3C)cn2C)cc1C(=O)NCCCC(=O)Nc1cn(C)c(C(=O)NCCC(=O)Nc2cc(C(=O)Nc3cn(C)c(C(=O)NCCC(=O)N4CCC(C#CC#CC5CCNCC5)CC4)n3)n(C)c2)n1` [Compound B-284], the EC50 [1, 2] is reported as < 100 nM and the EC50 (F35T cells; [3]) is reported as < 100 nM.

In the case of `COCCOCCOCCOCCN(CCOCCOCCOCCOC)C(=O)CCCCn1cc(NC(=O)c2nc(NC(=O)CCNC(=O)c3cc(NC(=O)c4nccn4C)cn3C)cn2C)cc1C(=O)NCCCC(=O)Nc1cn(C)c(C(=O)NCCC(=O)Nc2cc(C(=O)Nc3cn(C)c(C(=O)NCCC(=O)N4CCC(N5CCNCC5)CC4)n3)n(C)c2)n1` [Compound B-164], the EC50 [1, 2] is reported as 500 to 1000 nM and the EC50 (F35T cells; [3]) is reported as 100 to 500 nM.

Work on `CCOC(=O)CCNC(=O)c1nc(NC(=O)c2cc(NC(=O)CCNC(=O)c3nc(NC(=O)[C@H](N)CCNC(=O)c4cc(NC(=O)c5nc(NC(=O)CCNC(=O)c6cc(NC(=O)c7nccn7C)cn6C)cn5C)cn4C)cn3C)cn2C)cn1C` [Compound B-2] yielded an EC50 [1, 2] of 100 to 500 nM and an EC50 (F35T cells; [3]) of 100 to 500 nM.

`CCCNC(=O)CCNC(=O)c1nc(NC(=O)c2cc(NC(=O)CCNC(=O)c3nc(NC(=O)CCCNC(=O)c4cc(NC(=O)c5nc(NC(=O)CCNC(=O)c6cc(NC(=O)c7nccn7C)cn6C)cn5C)cn4CCCCCN=[N+]=[N-])cn3C)cn2C)cn1C` [Compound B-285] was tested, and the EC50 [1, 2] was < 100 nM and the EC50 (F35T cells; [3]) was < 100 nM.

With `Cn1cc(NC(=O)c2nc(NC(=O)CCNC(=O)c3cc(NC(=O)c4nccn4C)cn3C)cn2C)cc1C(=O)NCCCC(=O)Nc1cn(C)c(C(=O)NCCC(=O)Nc2cc(C(=O)Nc3cn(C)c(C(=O)NCCCOCOP(=O)(O)O)n3)n(C)c2)n1` [Compound B-332] the EC50 [1, 2] was 100 to 500 nM and the EC50 (F35T cells; [3]) was < 100 nM.

With `Cn1cc(NC(=O)c2nc(NC(=O)CCNC(=O)c3cc(NC(=O)c4nccn4C)cn3C)cn2C)cc1C(=O)NCCCC(=O)Nc1cn(C)c(C(=O)NCCC(=O)Nc2cc(C(=O)Nc3cn(C)c(C(=O)NCCC(=O)OCC(N)(CO)CO)n3)n(C)c2)n1` [Compound B-73] the EC50 [1, 2] was 500 to 1000 nM and the EC50 (F35T cells; [3]) was > 1000 nM.

With `CC(=O)NCCCCCCn1cc(NC(=O)c2nc(NC(=O)CCNC(=O)c3cc(NC(=O)c4nccn4C)cn3C)cn2C)cc1C(=O)NCCCC(=O)Nc1cn(C)c(C(=O)NCCC(=O)Nc2cc(C(=O)Nc3cn(C)c(C(=O)NCCC(=O)N4CCC(C#CC#CC5CCN(C(C)=O)CC5)CC4)n3)n(C)c2)n1` [Compound B-293] the EC50 [1, 2] was 500 to 1000 nM and the EC50 (F35T cells; [3]) was 100 to 500 nM.

For `Cn1cc(NC(=O)c2nc(NC(=O)CCNC(=O)c3cc(NC(=O)c4nccn4C)cn3C)cn2C)cc1C(=O)NCCCC(=O)Nc1cn(C)c(C(=O)NCCC(=O)Nc2cc(C(=O)Nc3cn(C)c(C(=O)NCCC(=O)N4CCC(CN5CCNCC5)CC4)n3)n(C)c2)n1` [Compound B-127], the EC50 [1, 2] was 100 to 500 nM and the EC50 (F35T cells; [3]) was 100 to 500 nM.

In the case of `COC(=O)c1cccc(NCCCCNC(=O)c2nc(NC(=O)c3cc(NC(=O)CCNC(=O)c4nc(NC(=O)CCCNC(=O)c5cc(NC(=O)c6nc(NC(=O)CCNC(=O)c7cc(NC(=O)c8nccn8C)cn7C)cn6C)cn5C)cn4C)cn3C)cn2C)c1` [Compound B-343], the EC50 [1, 2] is reported as < 100 nM and the EC50 (F35T cells; [3]) is reported as < 100 nM.

With `CC(=O)NCCOCCn1cc(NC(=O)c2nc(NC(=O)CCNC(=O)c3cc(NC(=O)c4nccn4C)cn3C)cn2C)cc1C(=O)NCCCC(=O)Nc1cn(C)c(C(=O)NCCC(=O)Nc2cc(C(=O)Nc3cn(C)c(C(=O)NCCC(=O)N4CCC(C#CC#CC5CCN(C(C)=O)CC5)CC4)n3)n(C)c2)n1` [Compound B-299] the EC50 [1, 2] was 100 to 500 nM and the EC50 (F35T cells; [3]) was < 100 nM.

Work on `CCCNC(=O)CCNC(=O)c1nc(NC(=O)c2cc(NC(=O)CCNC(=O)c3nc(NC(=O)CCCNC(=O)c4cc(NC(=O)c5nc(NC(=O)CCNC(=O)c6cc(NC(=O)c7nccn7C)cn6C)cn5C)cn4CCN)cn3C)cn2C)cn1C` [Compound B-265] yielded an EC50 [1, 2] of 100 to 500 nM and an EC50 (F35T cells; [3]) of 100 to 500 nM.

With `CCCNC(=O)c1nc(NC(=O)c2cc(NC(=O)CCNC(=O)c3nc(NC(=O)[C@H](N)CCNC(=O)c4cc(NC(=O)c5nc(NC(=O)CCNC(=O)c6cc(NC(=O)c7nccn7C)cn6C)cn5C)cn4C)cn3C)cn2C)cn1C` [Compound B-409] the EC50 [1, 2] was < 100 nM and the EC50 (F35T cells; [3]) was < 100 nM.

With `CCNC(=O)CCNC(=O)c1nc(NC(=O)c2cc(NC(=O)CCNC(=O)c3nc(NC(=O)CCCNC(=O)c4cc(NC(=O)c5nc(NC(=O)CCNC(=O)c6cc(NC(=O)c7nccn7C)cn6C)cn5C)cn4C)cn3C)cn2C)cn1C` [Compound B-311] the EC50 [1, 2] was 100 to 500 nM and the EC50 (F35T cells; [3]) was < 100 nM.

In the case of `CN1CCN(C(=O)CCNC(=O)c2nc(NC(=O)c3cc(NC(=O)CCNC(=O)c4nc(NC(=O)C[C@H](CNC(=O)c5cc(NC(=O)c6nc(NC(=O)CCNC(=O)c7cc(NC(=O)c8nccn8C)cn7C)cn6C)cn5C)NC(=O)c5ccccc5)cn4C)cn3C)cn2C)CC1` [Compound B-417], the EC50 ([1]; Homo sapiens, Fibroblast; DM1 patient fibroblasts, foci per nucleus, 48 h treatment; read-out: DM1 EC50, 48 h) is reported as 100 to 500 nM and the EC50 (F35T cells; F35T cells, foci per nucleus, 48 h treatment; read-out: FECD EC50, 48 h) is reported as < 100 nM.

For `Cn1cc(NC(=O)c2nc(NC(=O)CCNC(=O)c3cc(NC(=O)c4nccn4C)cn3C)cn2C)cc1C(=O)NCCCC(=O)Nc1cn(C)c(C(=O)NCCC(=O)Nc2cc(C(=O)Nc3cn(C)c(C(=O)NCCC(=O)N4CCC(N5CCN(C(=O)OC(C)(C)C)CC5)CC4)n3)n(C)c2)n1` [Compound B-30], the EC50 [1, 2] was 100 to 500 nM and the EC50 (F35T cells; [3]) was < 100 nM.

For `Cn1cc(NC(=O)c2nc(NC(=O)CCNC(=O)c3cc(NC(=O)c4nccn4C)cn3C)cn2C)cc1C(=O)NCCCC(=O)Nc1cn(C)c(C(=O)NCCC(=O)Nc2cc(C(=O)Nc3cn(C)c(C(=O)NCCC(=O)N4CCC(C#CC5=CCN(C(=O)OCC6c7ccccc7-c7ccccc76)CC5)CC4)n3)n(C)c2)n1` [Compound B-345], the EC50 [1, 2] was > 1000 nM and the EC50 (F35T cells; [3]) was 500 to 1000 nM.

`CN(CCCNC(=O)c1cccc(C(=O)O)c1)CCCNC(=O)c1cc(NC(=O)CCNC(=O)c2nc(NC(=O)CCCNC(=O)c3cc(NC(=O)c4nc(NC(=O)CCNC(=O)c5cc(NC(=O)c6nccn6C)cn5C)cn4C)cn3CCCCCCN=[N+]=[N-])cn2C)cn1C` [Compound B-253] was tested, and the EC50 [1, 2] was > 1000 nM and the EC50 (F35T cells; [3]) was > 1000 nM.

`CCCNC(=O)CCNC(=O)c1nc(NC(=O)c2cc(NC(=O)CCNC(=O)c3nc(NC(=O)CCNC(=O)c4cc(NC(=O)c5nc(NC(=O)CCNC(=O)c6cc(NC(=O)c7nccn7C)cn6C)cn5C)cn4C)cn3C)cn2C)cn1C` [Compound B-315] was tested, and the EC50 [1, 2] was > 1000 nM and the EC50 (F35T cells; [3]) was > 1000 nM.
